Measurements: US9546153B2, “Bicyclic heterocycle substituted pyridyl compounds useful as kinase modulators” (BRISTOL-MYERS SQUIBB COMPANY, priority 2012, dated 2017)
Read-outs that look alike come from different tables or passages of the source.

Key:
IRAK4 = IRAK4 (Homo sapiens (Human), UniProt Q9NWZ3); assay: IRAK4 Inhibition Assay; assay type: biochemical; settings: ATP 500 μM; IRAK4 0.6 nM; 60 min at room temperature
Procedure: The assays were performed in U-bottom 384-well plates. […] The reaction was initiated by the combination of IRAK4 with substrates and test compounds. The reaction was incubated at room temperature for 60 min. and terminated by adding 45 μL of 35 mM EDTA to each sample. The reaction mixture was analyzed on the Caliper LABCHIP® 3000 (Caliper, Hopkinton, Mass.) by electrophoretic separation of the fluorescent substrate and phosphorylated product.

[1] = system: TLR2 induced IL-6 in peripheral blood mononuclear cells (PBMCs); assay: PBMC TLR2 Induced IL-6 Assay; assay type: cell-based, human; settings: human PBMCs, 10 μg/ml lipoteichoic acid for 5 hours, IL-6 by ELISA; for IC50: value without asterisk, read-out: Cell IC50; for EC50: EC50 determinations are indicated with an asterisk, read-out: Cell EC50 (asterisk)
How it was run: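 Human PBMCs (250000 cells/well) in RPMI with 10% heat-inactivated FCS pre-treated with compound for 30 min at 37° C, then stimulated 5 h with 10 μg/ml lipoteichoic acid. Supernatant IL-6 measured by ELISA and reported as IC50 or EC50.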

IRAK4, sequence (Q9NWZ3 whole entry, species assumed): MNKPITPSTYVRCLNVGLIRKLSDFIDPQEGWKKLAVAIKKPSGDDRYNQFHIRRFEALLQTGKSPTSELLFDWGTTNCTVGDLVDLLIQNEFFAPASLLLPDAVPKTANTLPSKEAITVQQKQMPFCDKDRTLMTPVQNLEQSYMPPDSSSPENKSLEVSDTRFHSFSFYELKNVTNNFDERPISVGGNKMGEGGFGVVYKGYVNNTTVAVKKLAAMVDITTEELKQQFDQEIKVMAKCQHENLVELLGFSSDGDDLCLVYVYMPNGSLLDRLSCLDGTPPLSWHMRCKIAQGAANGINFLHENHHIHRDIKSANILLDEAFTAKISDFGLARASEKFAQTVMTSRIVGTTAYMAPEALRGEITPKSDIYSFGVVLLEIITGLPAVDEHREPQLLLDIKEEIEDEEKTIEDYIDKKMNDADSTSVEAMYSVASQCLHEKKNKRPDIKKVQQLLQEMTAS

SMILES	IC50 (IRAK4) [nM]	IC50 [1] [nM]	IC50 ([1]; Homo sapiens, PBMC, 5 h) [nM]	EC50 ([1]; Homo sapiens, PBMC, 5 h) [nM]
CC(C)(O)[C@H](F)CNC(=O)c1cnc(Nc2nc3ccnn3cc2F)cc1NC1CCC(F)C1 (some centres unmarked) [Example 410]	3.2	340		
CC(C)(O)[C@H](F)CNC(=O)c1cnc(Nc2ccc3ncc(C#N)cc3n2)cc1NC1CCC(F)C1 (some centres unmarked) [Example 411]	2.4	92		
CC(C)(O)[C@H](F)CNC(=O)c1cnc(Nc2ccc3ncc(C#N)cc3n2)cc1NC1CCC(F)C1 (some centres unmarked) [Example 412]	2.6	109		
CC(C)(O)[C@H](F)CNC(=O)c1cnc(Nc2ccc3ncc(C#N)cc3n2)cc1NC1CCC(F)C1 (some centres unmarked) [Example 413]	6.3	226		
CC(C)Nc1cc(Nc2cnc3[nH]ccc3c2)ncc1C(=O)NC[C@@H](F)C(C)(C)O [Example 415]	6.3		502	
CC(C)(O)[C@H](F)CNC(=O)c1cnc(Nc2ccc3ncsc3c2)cc1Nc1ncc(CO)s1 [Example 416]	1.8		255	
CC(C)(O)[C@H](F)CNC(=O)c1cnc(Nc2ccc3ncsc3n2)cc1NC1CCOCC1F (some centres unmarked) [Example 417]	10.9	72		
CC(C)(O)[C@H](F)CNC(=O)c1cnc(Nc2ccc3ncsc3c2)cc1NC1C2CCCC1CCC2 (some centres unmarked) [Example 419]	5.1		184	
CC(C)(O)[C@H](F)CNC(=O)c1cnc(Nc2ccn3ncc(F)c3c2)cc1NC1CC(F)(F)C1 [Example 420]	3.6		184	
CC(C)(O)c1cnc(Nc2cc(Nc3ccn4nccc4n3)ncc2C(=O)NC[C@@H](F)C(C)(C)O)s1 [Example 421]	3.3		131	
CC(C)(O)[C@H](F)CNC(=O)c1cnc(Nc2nc3ccnn3cc2F)cc1NC1CCCOC1 (some centres unmarked) [Example 422]	11.3		753	
CC(CO)Nc1cc(Nc2nc3ccnn3cc2F)ncc1C(=O)NC[C@@H](F)C(C)(C)O (some centres unmarked) [Example 423]	6.5		461	
CC(C)Nc1cc(Nc2ccc3ncsc3c2)ncc1C(=O)NC1CCCC(C(C)(C)O)C1 (centres unmarked) [Example 425]	13.1		560	
CC(C)Nc1cc(Nc2ccc3ncc(F)cc3n2)ncc1C(=O)NC[C@@H](F)C(C)(C)O [Example 427]	1.5		42	
CC(C)(O)[C@H](F)CNC(=O)c1cnc(Nc2ccc3ncc(F)cc3n2)cc1NC1CCOCC1 [Example 428]	2		52	
CC(C)(O)[C@H](F)CNC(=O)c1cnc(Nc2ccc3ncc(F)cc3n2)cc1NC1CC1 [Example 429]	2.1		128	
CC(C)(O)[C@H](F)CNC(=O)c1cnc(Nc2ccc3ncccc3n2)cc1NC1CCOCC1 [Example 430]	1.6		102	
CC(C)(O)[C@H](F)CNC(=O)c1cnc(Nc2cnc3[nH]ccc3c2)cc1NC1CC1 [Example 434]	6.5		52	
CC(C)(O)[C@H](F)CNC(=O)c1cnc(Nc2ccn3nccc3c2F)cc1N[C@@H]1CCCC1(F)F [Example 435]	2.1		79	
CC(C)(O)[C@H](F)CNC(=O)c1cnc(Nc2nc3ccnn3cc2F)cc1NC1CCOCC1F (some centres unmarked) [Example 436]	4.9		346	

SMILES	IC50 (IRAK4) [nM]	IC50 [1] [nM]	IC50 ([1]; Homo sapiens, PBMC, 5 h) [nM]	EC50 ([1]; Homo sapiens, PBMC, 5 h) [nM]
CCNc1cc(Nc2ccc3ncc(F)cc3n2)ncc1C(=O)NC[C@@H](F)C(C)(C)O [Example 437]	4.9		214	
CC(C)(O)[C@H](F)CNC(=O)c1cnc(Nc2ccc3ncccc3n2)cc1NC1CCOCC1F (some centres unmarked) [Example 438]	11.6	168		
CC(C)(O)[C@H](F)CNC(=O)c1cnc(Nc2ccc3ncccc3n2)cc1NC1CCOCC1F (some centres unmarked) [Example 439]	3.1	64		
CC(C)(O)[C@H](F)CNC(=O)c1cnc(Nc2ccc3ncc(C#N)cc3n2)cc1NC1CCCC1(F)F (some centres unmarked) [Example 441]	1.8		28	
CC(C)(O)[C@H](F)CNC(=O)c1cnc(Nc2ccc3ncc(C#N)cc3n2)cc1NC1CCCOC1 (some centres unmarked) [Example 442]	5.6		106	
CC(C)(O)[C@H](F)CNC(=O)c1cnc(Nc2ccc3ncc(C#N)cc3n2)cc1NC1CCCOC1 (some centres unmarked) [Example 443]	4.5	125		
CC(C)(O)[C@H](F)CNC(=O)c1cnc(Nc2ccc3ncc(C(N)=O)cc3n2)cc1NC1CCC1 [Example 444]	2.3		55	
CC(C)(O)[C@H](F)CNC(=O)c1cnc(Nc2ncc3ncccc3n2)cc1N[C@H]1CCC[C@@H]1F [Example 445]	3.8		106	
CC(C)(O)[C@H](F)CNC(=O)c1cnc(Nc2ncc3ncccc3n2)cc1N[C@@H]1CCC[C@@H]1F [Example 446]	10.6		94	
CC(C)(O)[C@H](F)CNC(=O)c1cnc(Nc2ncc3ncccc3n2)cc1NC1CCC(F)C1 (some centres unmarked) [Example 447]	2	1250		
CC(C)(O)[C@H](F)CNC(=O)c1cnc(Nc2ncc3ncccc3n2)cc1NC1CCC(F)C1 (some centres unmarked) [Example 448]	16.5	47		
CC(F)CNc1cc(Nc2ccc3ncsc3c2)ncc1C(=O)NC[C@@H](F)C(C)(C)O (some centres unmarked) [Example 450]	1.7		217	
CC(F)CNc1cc(Nc2ccc3ncsc3c2)ncc1C(=O)NC[C@@H](F)C(C)(C)O (some centres unmarked) [Example 451]	5	258		
CC(C)(O)[C@H](F)CNC(=O)c1cnc(Nc2ccn3nccc3n2)cc1NC1CC2CC2C1(F)F (some centres unmarked) [Example 452]	2.5		239	
CC(C)(O)c1cnc(Nc2cc(Nc3nc4ccnn4cc3F)ncc2C(=O)NC[C@@H](F)C(C)(C)O)s1 [Example 453]	2.6		836	
CC(C)(F)CNc1cc(Nc2cc3scnc3cc2F)ncc1C(=O)NC[C@@H](F)C(C)(C)O [Example 454]	2.8		38	
CC(C)Nc1cc(Nc2nc3scnc3cc2F)ncc1C(=O)NC[C@@H](F)C(C)(C)O [Example 455]	0.8		573	
CC(C)Nc1cc(Nc2ccc3ncsc3c2)ncc1C(=O)NC1CCC(C(C)(C)O)CC1 (centres unmarked) [Example 456]	1.6		336	
CC(C)Nc1cc(Nc2nc3ccnn3cc2F)ncc1C(=O)NC1CCC(C(C)(C)O)CC1 (centres unmarked) [Example 457]	3.4		1550	
CC(CO)Nc1cc(Nc2nc3scnc3cc2F)ncc1C(=O)NC[C@@H](F)C(C)(C)O (some centres unmarked) [Example 459]	3.4	141		

SMILES	IC50 (IRAK4) [nM]	IC50 [1] [nM]	IC50 ([1]; Homo sapiens, PBMC, 5 h) [nM]	EC50 ([1]; Homo sapiens, PBMC, 5 h) [nM]
CC(CO)Nc1cc(Nc2nc3scnc3cc2F)ncc1C(=O)NC[C@@H](F)C(C)(C)O (some centres unmarked) [Example 460]	3.3	553		
CC(C)(O)[C@H](F)CNC(=O)c1cnc(Nc2nc3scnc3cc2F)cc1NC1CCCC1F (some centres unmarked) [Example 461]	2		147	
CC(C)(O)[C@H](F)CNC(=O)c1cnc(Nc2nc3scnc3cc2F)cc1NC1CCCC1F (some centres unmarked) [Example 462]	1.7	115		
CC(C)(O)[C@H](F)CNC(=O)c1cnc(Nc2nc3scnc3cc2F)cc1NC1CC1 [Example 467]	2		428	
CCNc1cc(Nc2nc3scnc3cc2F)ncc1C(=O)NC[C@@H](F)C(C)(C)O [Example 468]	4.1		246	
CC(C)(O)[C@H](F)CNC(=O)c1cnc(Nc2nc3scnc3cc2F)cc1NC1CCOCC1F (some centres unmarked) [Example 469]	3.1		476	
CC(C)(O)[C@H](F)CNC(=O)c1cnc(Nc2nc3scnc3cc2F)cc1NC1CCOCC1F (some centres unmarked) [Example 470]	3.6	635		
CC(C)(O)[C@H](F)CNC(=O)c1cnc(Nc2nc3scnc3cc2F)cc1NC1CCCOC1 (some centres unmarked) [Example 473]	1.5		401	
CC(C)(O)[C@H](F)CNC(=O)c1cnc(Nc2nc3scnc3cc2F)cc1NC1CCCOC1 (some centres unmarked) [Example 474]	2.8	204		
CC(C)Nc1cc(Nc2cc3ccnn3cc2F)ncc1C(=O)NC[C@@H](F)C(C)(C)O [Example 477]	10		717	
CC(C)(O)[C@H](F)CNC(=O)c1cnc(Nc2nc3ccnn3cc2F)cc1NC1CCC(F)C1 (some centres unmarked) [Example 478]	2.2	50		
CC(C)(O)[C@H](F)CNC(=O)c1cnc(Nc2nc3ccnn3cc2F)cc1NC1CCCCC1F (some centres unmarked) [Example 479]	4.3		473	
CC(C)Nc1cc(Nc2ccc3cc(C#N)ccc3n2)ncc1C(=O)NC[C@@H](F)C(C)(C)O [Example 480]	8.4			877
CC(C)(O)[C@H](F)CNC(=O)c1cnc(Nc2nc3ccnn3cc2F)cc1NC1CC2CC2C1(F)F (some centres unmarked) [Example 481]	3.6		223	
Cc1cn2nccc2nc1Nc1cc(NC2CCOCC2)c(C(=O)NC[C@@H](F)C(C)(C)O)cn1 [Example 482]	10.3			251
CC(C)Nc1cc(Nc2nc3scnc3cc2F)ncc1C(=O)NCC(F)(F)C(C)(C)O [Example 483]	3.4		463	
C[C@@H](CO)Nc1cc(Nc2nc3scnc3cc2F)ncc1C(=O)N[C@H]1CC[C@H](O)CC1 [Example 484]	8.7		1350	
Cc1cn2nccc2cc1Nc1cc(NC(C)C)c(C(=O)NC[C@@H](F)C(C)(C)O)cn1 [Example 487]	8.1			632
